Assay results from patent EP0973766B1, “QUINOXALINEDIONES” (Pfizer Limited, priority 1997, dated 1998).

Test: Lipophilicity by the octanol/water partition method

logD: -1.7
Structure (SMILES): COCc1nnc(-c2ccc[n+]([O-])c2)n1-c1c(Cl)c(Cl)cc2[nH]c(=O)c(=O)[nH]c12 [Example 2, (-)-6,7-Dichloro-5-[3-methoxymethyl-5-(1-oxidopyridin-3-yl)-4H-1,2,4-triazol-4-yl]-2,3(1H,4H)-quinoxalinedione hydrate]
